The test system of assay [1] is Ba/F3-c-KIT(D816V). Put plainly: Proliferation inhibitory activity on Ba/F3 cell (CellTiter-Glo, 72 hours), c-KIT(D816V). The class given is cell-based. To be noted: Mus musculus, BaF3, read-out: Ba/F3 (nM) c-KIT (D816V) (GI50 class). The procedure: Ba/F3-TEL-PDGFRα(WT), Ba/F3-TEL-PDGFβ(WT), Ba/F3-c-KIT(D816V) (Kyinno, #KC-0138), c-KIT V560G/D816V, c-KIT D814Y were seeded at 3×10^3/100 μl/well in a clear bottom white 96-well plate. A culture solution containing compounds of 12 concentrations (0.00001-2 mM) serially diluted in 3 folds and the DMSO control group was added at 0.5 μl/well each to a final concentration of 0.00005-10 μM, and then incubated in a CO2 incubator at 37° C. for 72 hours. After 72 hours, the plate treated with the compound was taken out, CellTiter-Glo® Assay (Promega) solution was treated with 100 μl/well, followed by mixing well. After mixing well for about 10 minutes at room temperature, […] was measured using a microplate reader. The data were presented as percentages in proportion to treated cells based on the vehicle, GI50 (nM) values were calculated using GraphPad Prism 8.3.0 (GraphPad software Inc., San Diego).
The inhibitory activities of Ba/F3 expressing PDGFR-α, PDGFR-β, c-KIT(D816V), c-KIT V560G/D816V, and c-KIT D814Y measured as described above were measured and shown in Table 7 below (A: GI50≤200 nM; B: 200 nM<GI50≤500 nM; C: GI50>500 nM).

In assay [2] the test system is c-KIT V560G/D816V. Kind of assay: Proliferation inhibitory activity on Ba/F3 cell (CellTiter-Glo, 72 hours), c-KIT V560G/D816V. The assay is classed as cell-based. To be noted: Mus musculus, BaF3, c-KIT V560G/D816V cells, read-out: Cell (nM) c-KIT V560G/D816V (GI50 class). A digest of the protocol:
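3×10^3 Ba/F3 cells/well; cpd 0.00005-10 μM final, 3-fold × 12 pts, DMSO ctrl; 37 °C CO2, 72 h. CellTiter-Glo added, ~10 min RT, luminescence read. GI50 (nM) vs vehicle.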
(In general: In ATP-based viability assays light output follows the ATP content of the culture.)

Where only a bound is given, the exact number is not on record here.

Take `COCCN1CC(Oc2cc3ncnc(-c4ccc(NC(=O)Cc5ccc(C(F)(F)F)cc5)cc4)c3cc2OC)C1` [Example 28, N-(4-(6-methoxy-7-((1-(2-methoxyethyl)azetidin-3-yl)oxy)quinazolin-4-yl)phenyl)-2-(4-(trifluoromethyl)phenyl)acetamide]: the results for the GI50 in assay [1] and in assay [2] were ≤ 200 nM and > 500 nM, respectively.
The corresponding values for `COc1cc2c(-c3ccc(NC(=O)Cc4ccc(C(F)(F)F)cc4)cc3)ncnc2cc1OCc1cccnc1` [Example 29, N-(4-(6-methoxy-7-(pyridin-3-ylmethoxy)quinazolin-4-yl)phenyl)-2-(4-(trifluoromethyl)phenyl)acetamide] are ≤ 200 nM and ≤ 200 nM.
The corresponding values for `COc1cc2c(-c3ccc(NC(=O)Cc4ccc(C(F)(F)F)cc4)cc3)ncnc2cc1OCCCN1CCN2CCCC2C1` (stereo not shown) [Example 33, N-(4-(7-(3-(hexahydropyrrolo[1,2-a]pyrazin-2(1H)-yl)propoxy)-6-methoxyquinazolin-4-yl)phenyl)-2-(4-(trifluoromethyl)phenyl)acetamide] are ≤ 200 nM and ≤ 200 nM.
The corresponding values for `COc1cc2c(-c3ccc(NC(=O)Cc4ccc(C(F)(F)F)cc4)cc3)ncnc2cc1OCCCN1CCn2c(nnc2C(F)(F)F)C1` [Example 34, N-(4-(6-methoxy-7-(3-(3-(trifluoromethyl)-5,6-dihydro-[1,2,4]triazolo[4,3-a]pyrazin-7(8H)-yl)propoxy)quinazolin-4-yl)phenyl)-2-(4-(trifluoromethyl)phenyl)acetamide] are ≤ 200 nM and ≤ 200 nM.
`COc1cc2c(-c3ccc(NC(=O)Cc4ccc(C(F)(F)F)cc4)cc3)ncnc2cc1OC[C@@H]1CCN(C(=O)OC(C)(C)C)C1` [Example 35, tert-butyl (R)-3-(((6-methoxy-4-(4-(2-(4-(trifluoromethyl)phenyl)acetamido)phenyl)quinazolin-7-yl)oxy)methyl)pyrrolidin-1-carboxylate]: the GI50 in assay [1] is ≤ 200 nM; in assay [2], > 500 nM.
The matching figures for `COc1cc2c(-c3ccc(NC(=O)Cc4ccc(C(F)(F)F)cc4)cc3)ncnc2cc1OC[C@H]1CCN(C(=O)OC(C)(C)C)C1` [Example 36, tert-butyl (S)-3-(((6-methoxy-4-(4-(2-(4-(trifluoromethyl)phenyl)acetamido)phenyl)quinazolin-7-yl)oxy)methyl)pyrrolidin-1-carboxylate]: ≤ 200 nM and > 500 nM.
The corresponding values for `COc1cc2c(-c3ccc(NC(=O)Cc4ccc(C(F)(F)F)cc4)cc3)ncnc2cc1OC[C@H]1CCNC1` [Example 39, (S)-N-(4-(6-methoxy-7-(pyrrolidin-3-ylmethoxy)quinazolin-4-yl)phenyl)-2-(4-(trifluoromethyl)phenyl)acetamide] are ≤ 200 nM and 200 to 500 nM.
The corresponding values for `CCN1CC[C@H](COc2cc3ncnc(-c4ccc(NC(=O)Cc5ccc(C(F)(F)F)cc5)cc4)c3cc2OC)C1` [Example 41, (S)-N-(4-(7-((1-ethylpyrrolidin-3-yl)methoxy)-6-methoxyquinazolin-4-yl)phenyl)-2-(4-(trifluoromethyl)phenyl)acetamide] are ≤ 200 nM and ≤ 200 nM.
For `COCCN1CCCC(COc2cc3ncnc(-c4ccc(NC(=O)Cc5ccc(C(F)(F)F)cc5)cc4)c3cc2OC)C1` (stereo not shown) [Example 42, N-(4-(6-methoxy-7-((1-(2-methoxyethyl)piperidin-3-yl)methoxy)quinazolin-4-yl)phenyl)-2-(4-(trifluoromethyl)phenyl)acetamide], the GI50 in assay [1] and in assay [2] was ≤ 200 nM each time.
Turning to `COc1cc2c(-c3ccc(NC(=O)Cc4ccc(C(F)(F)F)cc4)cc3)ncnc2cc1OCCCN1CCC(C)CC1` [Example 44, N-(4-(6-methoxy-7-(3-(4-methylpiperidin-1-yl)propoxy)quinazolin-4-yl)phenyl)-2-(4-(trifluoromethyl)phenyl)acetamide], the GI50 in assay [1] and in assay [2] was ≤ 200 nM throughout.
As for `COc1cc2c(-c3ccc(NC(=O)Cc4cccc(C(F)(F)F)c4)cc3)ncnc2cc1OCCCN1CCN(C)CC1` [Example 55, N-(4-(6-methoxy-7-(3-(4-methylpiperazin-1-yl)propoxy)quinazolin-4-yl)phenyl)-2-(3-(trifluoromethyl)phenyl)acetamide], the GI50 in assay [1] and in assay [2] was ≤ 200 nM in each case.
For `COc1cc2c(-c3ccc(NC(=O)Cc4cccc(C(F)(F)F)c4)cc3)ncnc2cc1OCC1CCNCC1` [Example 60, N-(4-(6-methoxy-7-(piperidin-4-ylmethoxy)quinazolin-4-yl)phenyl)-2-(3-(trifluoromethyl)phenyl)acetamide], the results for the GI50 in assay [1] and in assay [2] were ≤ 200 nM and 200 to 500 nM, respectively.
As for `COc1cc2c(-c3ccc(NC(=O)CCc4ccccc4)cc3)ncnc2cc1OCC1CCNCC1` [Example 71, N-(4-(6-methoxy-7-(piperidin-4-ylmethoxy)quinazolin-4-yl)phenyl)-3-phenylpropanamide], the results for the GI50 in assay [1] and in assay [2] were ≤ 200 nM and 200 to 500 nM, respectively.
The matching figures for `COc1cc2c(-c3ccc(NC(=O)Cc4ccc(C(F)(F)F)cc4)cc3)ncnc2cc1OC[C@@H]1CCCNC1` [Example 73, (R)-N-(4-(6-methoxy-7-(piperidin-3-ylmethoxy)quinazolin-4-yl)phenyl)-2-(4-(trifluoromethyl)phenyl)acetamide]: ≤ 200 nM and ≤ 200 nM.
For the molecule `COc1cc2c(-c3ccc(NC(=O)Cc4ccc(Cl)c(C(F)(F)F)c4)cc3)ncnc2cc1OCC1CCNCC1` [Example 77, 2-(4-chloro-3-(trifluoromethyl)phenyl)-N-(4-(6-methoxy-7-(piperidin-4-ylmethoxy)quinazolin-4-yl)phenyl)acetamide], the GI50 was ≤ 200 nM in assay [1] and 200 to 500 nM in assay [2].
The matching figures for `CCN1CCC(COc2cc3ncnc(-c4ccc(NC(=O)Cc5ccc(Cl)c(C(F)(F)F)c5)cc4)c3cc2OC)CC1` [Example 78, 2-(4-chloro-3-(trifluoromethyl)phenyl)-N-(4-(7-((1-ethylpiperidin-4-yl)methoxy)-6-methoxyquinazolin-4-yl)phenyl)acetamide]: ≤ 200 nM and ≤ 200 nM.
With `CCN1CCC(COc2cc3ncnc(-c4ccc(NC(=O)Cc5ccc(C(F)(F)F)c(F)c5)cc4)c3cc2OC)CC1` [Example 80, N-(4-(7-((1-ethylpiperidin-4-yl)methoxy)-6-methoxyquinazolin-4-yl)phenyl)-2-(3-fluoro-4-(trifluoromethyl)phenyl)acetamide], the GI50 in assay [1] and in assay [2] was ≤ 200 nM in each case.
For the molecule `CCN1CCC(Oc2cc3c(-c4ccc(NC(=O)Cc5ccc(C(F)(F)F)cc5)cc4)ncnc3cc2OC)CC1` [Example 123, N-(4-(6-((1-ethylpiperidin-4-yl)oxy)-7-methoxyquinazolin-4-yl)phenyl)-2-(4-(trifluoromethyl)phenyl)acetamide], the GI50 in assay [1] and in assay [2] was ≤ 200 nM in each case.
Take `COc1cc2ncnc(-c3ccc(NC(=O)Cc4ccc(C(F)(F)F)cc4)cc3)c2cc1OCCCN1CCN(C2CC2)CC1` [Example 127, N-(4-(6-(3-(4-cyclopropylpiperazin-1-yl)propoxy)-7-methoxyquinazolin-4-yl)phenyl)-2-(4-(trifluoromethyl)phenyl)acetamide]: the GI50 in assay [1] was ≤ 200 nM; in assay [2], 200 to 500 nM.
Regarding `COc1cc2ncnc(-c3ccc(NC(=O)Cc4ccc(C(F)(F)F)cc4)cc3)c2cc1OC1CCNC1` (stereo not shown) [Example 139, N-(4-(7-methoxy-6-(pyrrolidin-3-yloxy)quinazolin-4-yl)phenyl)-2-(4-(trifluoromethyl)phenyl)acetamide], the GI50 in assay [1] is ≤ 200 nM; in assay [2], > 500 nM.
The matching figures for `COc1cc2c(-c3ccc(NC(=O)Cc4ccc(C(F)(F)F)cc4)cc3)ncnc2cc1OCCCN1CCN(C(C)=O)CC1` [Example 141, N-(4-(7-(3-(4-acetylpiperazin-1-yl)propoxy)-6-methoxyquinazolin-4-yl)phenyl)-2-(4-(trifluoromethyl)phenyl)acetamide]: ≤ 200 nM and ≤ 200 nM.
The matching figures for `COc1cc2c(-c3ccc(NC(=O)Cc4ccc(C(F)(F)F)cc4)cc3)ncnc2cc1OCCCN1CCN(C)C(=O)C1` [Example 143, N-(4-(6-methoxy-7-(3-(4-methyl-3-oxopiperazin-1-yl)propoxy)quinazolin-4-yl)phenyl)-2-(4-(trifluoromethyl)phenyl)acetamide]: ≤ 200 nM and ≤ 200 nM.
The corresponding values for `COc1cc2ncnc(-c3ccc(NC(=O)Cc4ccc(C(F)(F)F)cc4)cc3)c2cc1O[C@H]1CCCO1` [Example 156, (S)-N-(4-(7-methoxy-6-((tetrahydrofuran-2-yl)oxy)quinazolin-4-yl)phenyl)-2-(4-(trifluoromethyl)phenyl)acetamide] are ≤ 200 nM and 200 to 500 nM.

The values above are taken from patent publication US20260138959A1, “QUINAZOLINE DERIVATIVE COMPOUND AND USE THEREOF” (VORONOI INC., priority 2021, published 2026).
